# Literature values, collected in patent US20140023695A1, “PATCH PREPARATION” (priority 2011, published 2014).
# How the values were obtained:
# [1] = molecular target: dopamine D2 (Homo sapiens, UniProt P14416); details: as compared to existing antipsychotic, haloperidol
# [2] = system: serotonin 5-HT2 receptor; details: as compared to existing antipsychotic, haloperidol
# Sequence of dopamine D2 (P14416 whole entry): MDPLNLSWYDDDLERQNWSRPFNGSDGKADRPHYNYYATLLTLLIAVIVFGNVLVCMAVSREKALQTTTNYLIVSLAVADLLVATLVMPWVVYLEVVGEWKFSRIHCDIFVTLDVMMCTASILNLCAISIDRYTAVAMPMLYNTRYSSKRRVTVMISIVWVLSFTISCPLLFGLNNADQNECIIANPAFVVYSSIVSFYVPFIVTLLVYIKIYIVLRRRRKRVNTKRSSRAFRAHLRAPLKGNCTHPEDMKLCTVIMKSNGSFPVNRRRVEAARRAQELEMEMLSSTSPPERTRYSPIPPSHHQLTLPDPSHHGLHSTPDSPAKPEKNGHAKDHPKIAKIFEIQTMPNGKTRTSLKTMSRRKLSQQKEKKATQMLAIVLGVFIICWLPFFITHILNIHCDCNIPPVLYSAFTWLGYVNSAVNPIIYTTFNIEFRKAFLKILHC
smiles,measurement,setting,value
"CCN1CCN(c2cc(-c3ccc(F)cc3)c3c(n2)CCCCCC3)CC1 [compound A, 2-(4-Ethyl-1-piperazinyl)-4-(4-fluorophenyl)-5,6,7,8,9,10-hexahydrocycloocta[b]pyridine]",affinity for dopamine D2,[1],higher affinity
same,affinity for serotonin 5-HT2 receptor,[2],higher affinity
